Experiments:
KKAy mice = assay: Blood glucose and blood lipid (triglyceride) lowering action in mice; assay type: in vivo; conditions: 6 days; for hypoglycemic action (%): decrease rate of blood glucose vs non-administration group (100%); for hypolipidemic action (%): decrease rate of blood triglyceride vs non-administration group (100%)
Text: The test compound was mixed with a powder diet (CE-2, CLEA JAPAN, INC.) at a proportion of 0.01% (0.03% for the compound of Example 1) and freely given to KKAy mice (9 to 12-week-old, 5 mice per group) which are obese non-insulin-dependent diabetes (type-2 diabetes) models, for 6 days. During this period, water was freely given to the mice. The blood was drawn from the orbital venous plexus. Glucose and triglyceride in the plasma separated from the blood were quantitated using L Type Wako Glu2 (Wako Pure Chemical Industries, Ltd.) and L Type Wako TG·H (Wako Pure Chemical Industries, Ltd.), respectively, according to an enzyme method.

PPAR γ-RXRα heterodimer = target: T1, PPAR γ-RXRα heterodimer (Homo sapiens, UniProt P37231); assay: PPAR γ-RXRα heterodimer ligand activity (luciferase reporter in PPAR γ:RXRα:4ERPP/CHO-K1 cells); assay type: cell-based; conditions: for EC50: compound concentration showing 50% of the maximum induction rate of luciferase activity, 18-24 hr incubation; for Vmax (%): maximum luciferase induction relative to 5-{4-[2-(5-methyl-2-phenyl-1,3-oxazol-4-yl)ethoxy]benzyl}-1,3-thiazolidin-2,4-dione (PPARγ full agonist) as 100%
T1 construct: expressed in transfected cells; host or cells: CHO-K1 (PPAR γ:RXRα:4ERPP/CHO-K1)
T1 sequence (P37231 29-505 limits assumed): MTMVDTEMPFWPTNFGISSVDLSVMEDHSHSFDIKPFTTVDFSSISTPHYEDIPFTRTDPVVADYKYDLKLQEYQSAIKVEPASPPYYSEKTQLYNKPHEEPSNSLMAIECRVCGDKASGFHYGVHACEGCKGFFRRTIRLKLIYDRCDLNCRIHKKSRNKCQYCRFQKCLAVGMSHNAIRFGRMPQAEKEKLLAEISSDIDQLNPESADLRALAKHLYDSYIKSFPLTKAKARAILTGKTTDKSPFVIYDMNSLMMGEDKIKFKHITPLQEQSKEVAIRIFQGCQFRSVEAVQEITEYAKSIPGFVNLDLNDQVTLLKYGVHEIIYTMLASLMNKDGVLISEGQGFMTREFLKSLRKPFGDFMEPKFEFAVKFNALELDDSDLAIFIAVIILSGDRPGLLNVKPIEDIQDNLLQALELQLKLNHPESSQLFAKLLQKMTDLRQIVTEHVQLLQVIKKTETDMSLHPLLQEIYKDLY
T1 sequence (P19793 1-462 partner): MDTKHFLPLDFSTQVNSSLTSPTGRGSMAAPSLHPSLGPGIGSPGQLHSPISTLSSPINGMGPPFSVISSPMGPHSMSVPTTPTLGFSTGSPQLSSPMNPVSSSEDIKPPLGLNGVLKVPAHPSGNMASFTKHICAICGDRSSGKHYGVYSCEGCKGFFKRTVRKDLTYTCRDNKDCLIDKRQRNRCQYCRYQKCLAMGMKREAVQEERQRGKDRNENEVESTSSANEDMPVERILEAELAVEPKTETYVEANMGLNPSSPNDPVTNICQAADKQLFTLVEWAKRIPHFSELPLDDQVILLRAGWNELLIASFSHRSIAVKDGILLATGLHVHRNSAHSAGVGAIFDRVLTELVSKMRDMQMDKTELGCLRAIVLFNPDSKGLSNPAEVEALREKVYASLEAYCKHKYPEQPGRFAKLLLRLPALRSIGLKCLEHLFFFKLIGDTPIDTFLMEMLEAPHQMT
Method: The PPAR γ:RXRα:4ERPP/CHO-K1 cells described in WO03/099793 were cultured in a HamF12 medium [manufactured by Life Technologies, Inc., US] containing 10% calf fetal serum [manufactured by Life Technologies, Inc., US], sown in a 96-well white plate [manufactured by Corning Coster Corporation, US] at 2×10^4 cells/well, and incubated overnight in a carbon dioxide gas incubator at 37° C.
Then, the medium was removed from the 96 well white plate, 80 μl of HamF12 medium containing 0.1% fatty acid-free bovine serum albumin (BSA) and a test compound (20 μl) were added, and the cells were incubated for 18-24 hr in a carbon dioxide gas incubator at 37° C. The medium was removed, 40 μl of PicaGene7.5 (manufactured by Wako Pure Chemical Industries, Ltd.) 2-fold diluted with HBSS (HANKS' BALANCED SALT SOLUTION) [manufactured by BIO WHITTAKER, US] was added. After stirring, the luciferase activity was determined using the 1420 ARVO Multilabel Counter [manufactured by PerkinElmer, US].
The induction rate was calculated from the luciferase activity of each test compound based on the luciferase activity of the test compound non-administration group as 1. The test compound concentration and the induction rate were analyzed by PRISM [manufactured by GraphPad Software, Inc., US] to calculate EC50 value (compound concentration showing 50% of the maximum value of induction rate) of the test compound.
In addition, the luciferase activity induction magnification maximum value of each test compound relative to that of the 5-{4-[2-(5-methyl-2-phenyl-1,3-oxazol-4-yl)ethoxy]benzyl}-1,3-thiazolidin-2,4-dione (PPARγ full agonist) administration group as 100% was defined as Vmax and calculated.

[1] = 0.03% in powder diet (compound of Example 1)

SMILES	EC50 (PPAR γ-RXRα heterodimer)	Vmax (%) (PPAR γ-RXRα heterodimer)	melting point	hypoglycemic action (%) (KKAy mice; 0.01% in powder diet)	hypolipidemic action (%) (KKAy mice; 0.01% in powder diet)	hypoglycemic action (%) (KKAy mice; [1])	hypolipidemic action (%) (KKAy mice; [1])
COc1ccc(C(=O)c2ccc(OCc3nc(-c4ccccc4)oc3C)cc2)c(OCC(=O)O)c1 [Example 1, (5-methoxy-2-{4-[(5-methyl-2-phenyl-1,3-oxazol-4-yl)methoxy]benzoyl}phenoxy)acetic acid]	100 nM	57%	146 to 147 °C	–	–	54%	44%
COc1ccc(C(=O)c2ccc(OCc3nc(-c4ccccc4)oc3C)cc2)c(OC(C)(C)C(=O)O)c1 [Example 14, 2-(5-methoxy-2-{4-[(5-methyl-2-phenyl-1,3-oxazol-4-yl)methoxy]benzoyl}phenoxy)-2-methylpropanoic acid]	15 nM	61%	175 to 177 °C	38%	29%	–	–
COc1ccc(C(=O)c2ccc(OCc3nc(-c4ccccc4)oc3C)nc2)c(OC(C)C(=O)O)c1 (stereo not drawn) [Example 21, 2-[5-methoxy-2-({6-[(5-methyl-2-phenyl-1,3-oxazol-4-yl)methoxy]pyridin-3-yl}carbonyl)phenoxy]propanoic acid]	8.1 nM	60%	162 to 163 °C	32%	14%	–	–

Continued, in another order:

EC50 (PPAR γ-RXRα heterodimer)	Vmax (%) (PPAR γ-RXRα heterodimer)	melting point	SMILES	hypoglycemic action (%) (KKAy mice; 0.01% in powder diet)	hypolipidemic action (%) (KKAy mice; 0.01% in powder diet)	hypoglycemic action (%) (KKAy mice; [1])	hypolipidemic action (%) (KKAy mice; [1])
33 nM	70%	186 to 187 °C	Cc1oc(-c2ccccc2)nc1COc1ccc(C(=O)c2ccccc2OC(C)C(=O)O)cc1 (stereo not drawn) [Example 22, 2-(2-{4-[(5-methyl-2-phenyl-1,3-oxazol-4-yl)methoxy]benzoyl}phenoxy)propanoic acid]	41%	48%	–	–
15 nM	44%	–	COc1ccc(C(=O)c2ccc(OCCc3nc(-c4ccccc4)oc3C)nc2)c(O[C@H](C)C(=O)O)c1 [Example 55, (2R)-2-[5-methoxy-2-({6-[2-(5-methyl-2-phenyl-1,3-oxazol-4-yl)ethoxy]pyridin-3-yl}carbonyl)phenoxy]propanoic acid]	–	–	–	–
1 nM	73%	122 to 123 °C	COc1cc(C)c(C(=O)c2ccc(OCc3nc(-c4ccccc4)oc3C)cc2)c(O[C@H](C)C(=O)O)c1 [Example 42, (2R)-2-(5-methoxy-3-methyl-2-{4-[(5-methyl-2-phenyl-1,3-oxazol-4-yl)methoxy]benzoyl}phenoxy)propanoic acid]	–	–	–	–
5.1 nM	60%	169 to 170 °C	COc1ccc(C(=O)c2ccc(OCc3nc(-c4ccccc4)oc3C)cc2)c(O[C@H](C)C(=O)O)c1 [Example 53, (2R)-2-(5-methoxy-2-{4-[(5-methyl-2-phenyl-1,3-oxazol-4-yl)methoxy]benzoyl}phenoxy)propanoic acid]	46%	12%	–	–
